Measurements published in US8901118B2, “Compounds and methods for kinase modulation, and indications therefor” (Plexxikon Inc., priority 2010, dated 2014).

Key:
[1] = molecular target: T1, BCR-KIT BaF3 cells (Homo sapiens, UniProt P10721); assay: BaF3 BCR-KIT cell proliferation assay (ATPlite); format: cell-based; details: read-out: Inhibition of Cell Proliferation IC50, BCR/BaF3 Kit
T1 construct: fused on or other part: P11274 (Breakpoint cluster region protein)
Protocol: (§1) Compounds are assessed in a variety of cell based assays. For example BaF3 cells engineered with any of BCR-FMS, BCR-KIT, BCR-FLT3, BCR-NTRK1, BCR-NTRK2, and BCR-NTRK3, are used in cell proliferation assays to assess inhibitory activity of Fms, Kit, Flt-3, TrkA, TrkB, and TrkC, respectively. An MV-4-11 (leukemia) cell proliferation assay is used to assess inhibitory activity in Flt-3, and SKNSH (human neuroblastoma) cell proliferation assay is used to assess efficacy of Fms/Trk inhibitors. Additional cells may be assayed similarly to assess the efficacy of Fms/Trk inhibitors, such as MiaPaCa (human pancreatic cancer) and Capan-1 (human pancreatic carcinoma) cells. Reagent and assay conditions are as follows: • BaF3 cells: • Maintained in RPMI containing 10% FBS, 1% PenStrep, 1% NEAA, and 1% L-Glutamine, supplemented with 1 mg/mL G418 and 5% WEHI-CM (or recombinant murine IL-3). • Confluent cells are split 1:50 to 1:100 every 3-4 days. • MV-4-11 cells: • Maintained in Iscove's Modified Dulbecco's Medium containing 10% FBS. • Confluent cells are split 1:4 every 3-4 days. • SKNSH cells: RPMI containing 10% FBS. On day 1, cells are counted, then centrifuged in a conical tube for 5 minutes at 1000 rpm. The supernatant is removed and cells are re-suspended as follows: • BaF3: resuspend in growth media +1 mg/mL G418 (without WEHFIL-3) to 2×10^5 cells/mL. • MV-4-11: resuspend in growth media to 5×10^5 cells/mL. • SKNSH: resuspend in growth media to 2×10^4 cells/mL. The cells are plated (50 μL, 150 μL for SKNSH cells) in each well of a 96-well dish (Corning 3610) and incubated at 37° C. in 5% CO2 overnight, cells plated to a final concentration of cells as follows: • BaF3: 10,000 cells per well. • MV-4-11: 25,000 cells per well. • SKNSH: 3,000 cells per well. On day 2, compound at a maximum concentration of 5 mM is serially diluted 1:3 for a total of 8 point titration with DMSO as a control. A 1 μL aliquot of each dilution point is added to 249 μL growth media and 50 μL is added to a well containing cells, providing 10 μM compound for the maximum concentration point. The cells are incubated for 3 days at 37° C. in 5% CO2. For SKNSH cells, a 0.75 μL aliquot of appropriate dilution in DMSO is added to 150 μL of cells. On day 5, ATPlite 1 step Luminescence Assay System (Perkin Elmer #6016739) is brought to room temperature along with the cell cultures. ATPlite is added to each well as follows: • BaF3: 25 μL per well. • MV-4-11: 40 μL per well. • SKNSH: 20 μL per well. The cells are incubated at room temperature for 10 minutes, then luminescence is read on Safire reader. The measured luminescence correlates directly with cell number, such that the reading as a function of compound concentration is used to determine the IC50 value.
(§2) It is understood that the results of these assays may vary as assay conditions are varied. Inhibition levels determined under the conditions described herein represent a relative activity for the compounds tested under the specific conditions employed. The cell based assays are likely to show variability due to the complexity of the system and the sensitivity thereof to any changes in the assay conditions. […] Results for compounds that are tested and show substantially no inhibition below the highest tested concentration are represented as “-” in the tables below. In some instances, the compounds were not tested in all of the assays, or assay results were not valid, as indicated by NA in the tables below.

[2] = molecular target: T2, CYP1A2 (Homo sapiens, UniProt P05177); assay: CYP1A2 inhibition (fluorescent substrate CEC); format: in vitro ADME; details: read-out: Cyp IC50 1A2
T2 sequence (P05177 1-516): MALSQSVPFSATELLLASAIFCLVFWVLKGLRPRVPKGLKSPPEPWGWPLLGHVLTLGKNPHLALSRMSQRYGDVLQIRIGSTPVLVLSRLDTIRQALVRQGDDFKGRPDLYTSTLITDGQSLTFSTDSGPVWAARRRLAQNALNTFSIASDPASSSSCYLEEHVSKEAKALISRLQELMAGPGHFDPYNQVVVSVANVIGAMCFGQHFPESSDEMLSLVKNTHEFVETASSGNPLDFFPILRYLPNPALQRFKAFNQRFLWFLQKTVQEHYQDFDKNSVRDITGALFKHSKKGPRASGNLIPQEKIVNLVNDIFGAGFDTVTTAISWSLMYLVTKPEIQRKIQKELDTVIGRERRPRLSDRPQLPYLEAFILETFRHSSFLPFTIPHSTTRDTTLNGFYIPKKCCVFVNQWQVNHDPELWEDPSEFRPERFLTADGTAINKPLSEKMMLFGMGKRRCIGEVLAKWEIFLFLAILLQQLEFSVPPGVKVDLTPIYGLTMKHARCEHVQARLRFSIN
Protocol: (§3) CYP (Cytochrome P450) enzymes are the major drug metabolizing enzymes present in the liver. The inhibition of CYP enzyme activity (IC50) for each of CYP1A2, CYP2C19, CYP2C9, CYP2D6, CYP3A4(BFC) and CYP3A4(BQ) is determined for compounds, where inhibition of metabolism of a known substrate leads to a decrease in the fluorescence of the metabolized product. The fluorescence of the product is monitored as a function of compound concentration. Compounds are dissolved in DMSO to a concentration of 100 mM. These are diluted 1 μL into 82 μL of acetonitrile. An 11 μL aliquot of this solution is then added to 204 μL of cofactor mix (1.3% NADPH Regeneration system Solution A, 1.04% NADPH Regeneration system Solution B from BD Biosciences, 5% acetonitrile and 0.05% DMSO). These are then serially diluted 1:1 (160 μL to 160 μL co-factor mix) for a total of 10 points. A 10 μL aliquot of this final mixture is dispensed into 384 well assay plates and incubated for 10 minutes at 37° C. […] Assay plates are incubated at 37° C. (CYP1A2-15 min; CYP2C9-45 min; CYP2C19, 2D6 and 3A4-30 min) and read in a Tecan Safire 2 plate reader (CYP1A2, 2C19 and 3A4 409 ex/460 em; CYP2C9 and 2D6 409 ex/530 em). The signal versus compound concentration is used to determine the IC50. The enzymes and substrates for this assay are obtained from BD Biosciences.

[3] = molecular target: CYP3A4(BQ) (Homo sapiens, UniProt P08684); assay: CYP3A4(BQ) inhibition; format: in vitro ADME; details: CYP3A4, substrate BQ; read-out: Cyp IC50 3A4(BQ)
Sequence of CYP3A4(BQ) (P08684 whole entry): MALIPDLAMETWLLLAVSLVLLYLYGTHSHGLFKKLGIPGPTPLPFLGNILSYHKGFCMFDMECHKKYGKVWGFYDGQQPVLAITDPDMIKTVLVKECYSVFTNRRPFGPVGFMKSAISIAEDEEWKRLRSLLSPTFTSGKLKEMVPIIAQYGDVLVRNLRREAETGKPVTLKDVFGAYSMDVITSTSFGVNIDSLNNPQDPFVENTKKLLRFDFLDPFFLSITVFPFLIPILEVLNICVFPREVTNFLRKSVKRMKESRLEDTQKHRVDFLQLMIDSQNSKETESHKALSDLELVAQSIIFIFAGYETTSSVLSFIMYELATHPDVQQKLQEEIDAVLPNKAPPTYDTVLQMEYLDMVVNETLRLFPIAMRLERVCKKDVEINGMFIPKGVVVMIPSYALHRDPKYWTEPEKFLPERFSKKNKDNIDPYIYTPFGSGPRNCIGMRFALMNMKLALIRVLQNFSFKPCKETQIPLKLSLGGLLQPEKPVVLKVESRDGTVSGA
Protocol: as §3

[4] = molecular target: T3, BCR-NTRK3 BaF3 cells (Homo sapiens, UniProt Q16288); assay: BaF3 BCR-NTRK3 cell proliferation assay (ATPlite); format: cell-based; details: read-out: Inhibition of Cell Proliferation IC50, BCR/BaF3 TrkC
T3 construct: fused on or other part: P11274 (Breakpoint cluster region protein)
T3 sequence (Q16288 whole entry, the tested form may be a part): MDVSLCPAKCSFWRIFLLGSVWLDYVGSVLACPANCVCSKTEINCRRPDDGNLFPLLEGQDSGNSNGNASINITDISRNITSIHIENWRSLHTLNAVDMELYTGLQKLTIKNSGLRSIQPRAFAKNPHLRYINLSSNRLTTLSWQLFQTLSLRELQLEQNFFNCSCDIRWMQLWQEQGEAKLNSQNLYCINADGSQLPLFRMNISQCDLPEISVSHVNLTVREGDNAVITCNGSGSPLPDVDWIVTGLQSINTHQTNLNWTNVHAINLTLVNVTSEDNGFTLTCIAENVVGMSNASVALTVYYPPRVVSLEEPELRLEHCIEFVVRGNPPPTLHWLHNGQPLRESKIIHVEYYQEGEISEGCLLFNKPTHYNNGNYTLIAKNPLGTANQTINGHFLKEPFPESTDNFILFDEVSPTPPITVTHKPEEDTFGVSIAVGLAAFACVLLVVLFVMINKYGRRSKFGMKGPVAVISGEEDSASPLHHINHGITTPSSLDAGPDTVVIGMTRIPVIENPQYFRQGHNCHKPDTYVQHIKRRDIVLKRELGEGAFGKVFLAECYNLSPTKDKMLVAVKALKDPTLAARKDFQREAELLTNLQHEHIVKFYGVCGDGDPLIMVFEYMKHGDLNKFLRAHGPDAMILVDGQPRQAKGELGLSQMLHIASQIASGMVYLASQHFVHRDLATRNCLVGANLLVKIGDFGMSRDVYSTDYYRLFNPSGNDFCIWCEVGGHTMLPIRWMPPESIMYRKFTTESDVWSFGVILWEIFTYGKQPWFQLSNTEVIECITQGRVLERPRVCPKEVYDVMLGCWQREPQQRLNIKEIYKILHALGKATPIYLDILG
Protocol: as §1, §2

T1 sequence (P10721 589-937): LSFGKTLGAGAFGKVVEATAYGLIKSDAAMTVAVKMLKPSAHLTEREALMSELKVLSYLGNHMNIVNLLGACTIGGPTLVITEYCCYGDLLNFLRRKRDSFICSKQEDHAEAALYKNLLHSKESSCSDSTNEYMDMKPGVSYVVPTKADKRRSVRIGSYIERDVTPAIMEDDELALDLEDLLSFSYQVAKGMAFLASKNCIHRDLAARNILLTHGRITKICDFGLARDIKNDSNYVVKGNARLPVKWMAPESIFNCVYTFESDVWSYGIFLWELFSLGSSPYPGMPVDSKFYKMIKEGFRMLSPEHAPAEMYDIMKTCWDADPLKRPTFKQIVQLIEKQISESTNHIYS

Row | Compound | IC50 [1] | IC50 [2] | IC50 [3] | IC50 [4]
1 | CC(C)Nc1ncnc2[nH]cc(C(=O)c3ccc(NC4CCCCC4)nc3Cl)c12 [Compound P-4109, [2-chloro-6-(cyclohexylamino)-3-pyridyl]-[4-(isopropylamino)-7H-pyrrolo[2,3-d]pyrimidin-5-yl]methanone] | < 1 µM | > 10 µM | > 10 µM | –
2 | Clc1cnc2[nH]cc(Cc3cnc(Nc4ccccc4Cl)nc3)c2c1 [Compound P-3015, (2-Chloro-phenyl)-[5-(5-chloro-1H-pyrrolo[2,3-b]pyridin-3-ylmethyl)-pyrimidin-2-yl]-amine] | > 1 µM | – | – | > 10 µM
3 | CCCCNc1ncnc2[nH]cc(C(=O)c3ccc(Nc4ccc(CC)nc4)nc3F)c12 [Compound P-4100, [4-(butylamino)-7H-pyrrolo[2,3-d]pyrimidin-5-yl]-[6-[(6-ethyl-3-pyridyl)amino]-2-fluoro-3-pyridyl]methanone] | < 1 µM | < 5 µM | > 10 µM | –
4 | Cc1ccc(Nc2ccc(C(=O)c3c[nH]c4ncnc(NCC5CC5)c34)c(F)n2)cn1 [Compound P-4113, [4-(cyclopropylmethylamino)-7H-pyrrolo[2,3-d]pyrimidin-5-yl]-[2-fluoro-6-[(6-methyl-3-pyridyl)amino]-3-pyridyl]methanone] | < 1 µM | > 10 µM | > 10 µM | –
5 | CC(C)Nc1ncnc2[nH]cc(C(=O)c3ccc(NC4CCCCC4)nc3F)c12 [Compound P-4101, [6-(cyclohexylamino)-2-fluoro-3-pyridyl]-[4-(isopropylamino)-7H-pyrrolo[2,3-d]pyrimidin-5-yl]methanone] | < 1 µM | > 10 µM | > 10 µM | –
6 | CCCNc1ncnc2[nH]cc(C(=O)c3ccc(Nc4ccc(C)nc4)nc3F)c12 [Compound P-4114, [2-fluoro-6-[(6-methyl-3-pyridyl)amino]-3-pyridyl]-[4-(propylamino)-7H-pyrrolo[2,3-d]pyrimidin-5-yl]methanone] | < 1 µM | > 10 µM | > 10 µM | –
7 | CCc1ccc(Nc2ccc(C(=O)c3c[nH]c4ncnc(N[C@@H](C)c5ccc(F)cc5)c34)c(F)n2)cn1 [Compound P-4097, [6-[(6-ethyl-3-pyridyl)amino]-2-fluoro-3-pyridyl]-[4-[[(1S)-1-(4-fluorophenyl)ethyl]amino]-7H-pyrrolo[2,3-d]pyrimidin-5-yl]methanone] | < 1 µM | < 5 µM | > 10 µM | –
8 | CCc1ccc(Nc2ccc(C(=O)c3c[nH]c4ncnc(NC5CCC(F)(F)CC5)c34)c(F)n2)cn1 [Compound P-4096, [4-[(4,4-difluorocyclohexyl)amino]-7H-pyrrolo[2,3-d]pyrimidin-5-yl]-[6-[(6-ethyl-3-pyridyl)amino]-2-fluoro-3-pyridyl]methanone] | < 1 µM | < 5 µM | 5 to 10 µM | –
9 | Fc1ccccc1Nc1ncc(Cc2c[nH]c3ncc(Cl)cc23)cn1 [Compound P-3014, [5-(5-Chloro-1H-pyrrolo[2,3-b]pyridin-3-ylmethyl)-pyrimidin-2-yl]-(2-fluoro-phenyl)-amine] | > 1 µM | – | – | > 10 µM
10 | CNc1ncnc2[nH]cc(C(=O)c3ccc(Nc4ccc(OC)nc4)nc3OC)c12 [Compound P-4085, [2-methoxy-6-[(6-methoxy-3-pyridyl)amino]-3-pyridyl]-[4-(methylamino)-7H-pyrrolo[2,3-d]pyrimidin-5-yl]methanone] | > 1 µM | – | – | < 0.1 µM
11 | CCc1ccc(Nc2ccc(C(=O)c3c[nH]c4ncnc(NCCCOC)c34)c(F)n2)cn1 [Compound P-4098, [6-[(6-ethyl-3-pyridyl)amino]-2-fluoro-3-pyridyl]-[4-(3-methoxypropylamino)-7H-pyrrolo[2,3-d]pyrimidin-5-yl]methanone] | < 0.1 µM | < 5 µM | > 10 µM | –
12 | CCc1ccc(Nc2ccc(C(=O)c3c[nH]c4ncnc(NC5CCCC5)c34)c(F)n2)cn1 [Compound P-4099, [4-(cyclopentylamino)-7H-pyrrolo[2,3-d]pyrimidin-5-yl]-[6-[(6-ethyl-3-pyridyl)amino]-2-fluoro-3-pyridyl]methanone] | < 0.1 µM | < 5 µM | < 5 µM | –
13 | CNc1ncnc2[nH]cc(C(=O)c3ccc(NC4CCCCC4)nc3F)c12 [Compound P-4102, [6-(cyclohexylamino)-2-fluoro-3-pyridyl]-[4-(methylamino)-7H-pyrrolo[2,3-d]pyrimidin-5-yl]methanone] | < 1 µM | < 5 µM | > 10 µM | –
14 | CC1CCC(Nc2ncc(Cc3c[nH]c4ncc(Cl)cc34)cn2)CC1 (stereo not drawn) [Compound P-3009, [5-(5-Chloro-1H-pyrrolo[2,3-b]pyridin-3-ylmethyl)-pyrimidin-2-yl]-(4-methyl-cyclohexyl)-amine] | > 1 µM | > 10 µM | – | > 10 µM
15 | CNc1ncnc2[nH]cc(C(=O)c3ccc(NC4CCCCC4)nc3Cl)c12 [Compound P-4110, [2-chloro-6-(cyclohexylamino)-3-pyridyl]-[4-(methylamino)-7H-pyrrolo[2,3-d]pyrimidin-5-yl]methanone] | < 1 µM | < 5 µM | > 10 µM | –
